The target of assay [1] is Retinoic acid receptor beta (Homo sapiens) (UniProt P10826). Kind of assay: Binding affinity against retinoic acid receptor beta by [3H]ATRA displacement.
The target in assay [2] is Retinoic acid receptor gamma (Homo sapiens) (UniProt P13631). Nature of the assay: Binding affinity against retinoic acid receptor gamma by [3H]ATRA displacement.
Chain of Retinoic acid receptor gamma (Homo sapiens) (P13631 whole entry, looked up): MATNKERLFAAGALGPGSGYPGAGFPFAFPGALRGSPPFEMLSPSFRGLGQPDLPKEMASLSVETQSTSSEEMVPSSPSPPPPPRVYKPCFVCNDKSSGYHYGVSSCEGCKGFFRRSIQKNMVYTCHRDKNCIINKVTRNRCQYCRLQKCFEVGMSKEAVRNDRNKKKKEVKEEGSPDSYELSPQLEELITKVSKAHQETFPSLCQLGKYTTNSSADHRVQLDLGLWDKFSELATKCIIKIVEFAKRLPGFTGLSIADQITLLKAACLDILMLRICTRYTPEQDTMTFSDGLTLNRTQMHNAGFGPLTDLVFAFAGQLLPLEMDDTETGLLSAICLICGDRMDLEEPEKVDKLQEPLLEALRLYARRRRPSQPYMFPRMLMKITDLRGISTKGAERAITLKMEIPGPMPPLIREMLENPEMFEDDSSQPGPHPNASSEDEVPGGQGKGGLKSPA

Chain of Retinoic acid receptor beta (Homo sapiens) (P10826 whole entry, looked up): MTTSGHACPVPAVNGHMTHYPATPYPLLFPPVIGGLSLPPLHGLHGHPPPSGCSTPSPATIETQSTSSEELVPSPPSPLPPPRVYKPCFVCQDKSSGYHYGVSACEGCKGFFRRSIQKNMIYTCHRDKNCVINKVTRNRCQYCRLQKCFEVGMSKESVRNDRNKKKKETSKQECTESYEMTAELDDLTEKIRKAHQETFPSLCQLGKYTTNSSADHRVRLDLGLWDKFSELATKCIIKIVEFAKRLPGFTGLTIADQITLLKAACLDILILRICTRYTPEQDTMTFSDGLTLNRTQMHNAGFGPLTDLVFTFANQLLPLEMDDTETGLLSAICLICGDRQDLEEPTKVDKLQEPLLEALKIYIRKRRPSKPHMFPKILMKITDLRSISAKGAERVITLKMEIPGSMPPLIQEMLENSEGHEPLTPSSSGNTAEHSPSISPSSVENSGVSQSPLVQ

With `C/C(=C/C=C/C(C)=C/C(=O)O)c1cc(C(C)(C)C)cc(C(C)(C)C)c1OCC(F)F` [7-[3,5-Di-tert-butyl-2-(2,2-difluoro-ethoxy)-phenyl]-3-methyl-octa-2,4,6-trienoic acid], the Ki in assay [1] and in assay [2] was > 1 µM each time.
On to `C/C(=C\C(=O)O)c1cc2cccc(-c3cc(C(C)C)cc(C(C)C)c3OCC(F)F)c2o1` [(E)-3-{7-[2-(2,2-Difluoro-ethoxy)-3,5-diisopropyl-phenyl]-benzofuran-2-yl}-but-2-enoic acid], for which the inhibitory constant (Ki) in assay [1] and in assay [2] was > 10 µM throughout.
With `C/C(=C(/F)C(=O)O)c1cc2cccc(-c3cc(C(C)C)cc(C(C)C)c3OCC(F)F)c2o1` [(Z)-3-{7-[2-(2,2-Difluoro-ethoxy)-3,5-diisopropyl-phenyl]-benzofuran-2-yl}-2-fluoro-but-2-enoic acid], the inhibition constant Ki in assay [1] and in assay [2] was > 10 µM in each case.
`C/C(=C\C(=O)O)c1cc2c(-c3cc(C(C)(C)C)cc(C(C)(C)C)c3OCCC(F)F)cccc2s1` [(E)-3-{4-[3,5-Di-tert-butyl-2-(3,3-difluoro-propoxy)-phenyl]-benzo[b]thiophen-2-yl}-but-2-enoic acid]: the inhibition constant Ki in assay [1] and in assay [2] was > 10 µM throughout.
For the molecule `CCOc1c(-c2cccc3cc(/C(C)=C/C(=O)O)sc23)cc(C(C)C)cc1C(C)C` [(E)-3-[7-(2-Ethoxy-3,5-diisopropyl-phenyl)-benzo[b]thiophen-2-yl]-but-2-enoic acid], the Ki in assay [2] is > 10 µM.
For the molecule `CCCOc1c(-c2cccc3sc(/C(C)=C/C(=O)O)cc23)cc(C(C)C)cc1C(C)C` [(E)-3-[4-(3,5-Diisopropyl-2-propoxy-phenyl)-benzo[b]thiophen-2-yl]-but-2-enoic acid], the inhibition constant (Ki) in assay [1] and in assay [2] was > 10 µM each time.
Take `C/C(=C\C(=O)O)c1cc2cccc(-c3cc(C(C)C)cc(C(C)C)c3OCCCF)c2o1` [(E)-3-{7-[2-(3-Fluoro-propoxy)-3,5-diisopropyl-phenyl]-benzofuran-2-yl}-but-2-enoic acid]: the inhibition constant Ki in assay [1] and in assay [2] was > 10 µM each time.
On to `C/C(=C\C(=O)O)c1cc2c(-c3cc(C(C)(C)C)cc(C(C)(C)C)c3OCC(F)F)cccc2s1` [(E)-3-{4-[3,5-Di-tert-butyl-2-(2,2-difluoro-ethoxy)-phenyl]-benzo[b]thiophen-2-yl}-but-2-enoic acid], for which the Ki in assay [1] and in assay [2] was > 10 µM each time.
Turning to `C/C(=C\C(=O)O)c1cc2c(-c3cc(C(C)(C)C)cc(C(C)(C)C)c3OCC(F)(F)F)cccc2s1` [(E)-3-{4-[3,5-Di-tert-butyl-2-(2,2,2-trifluoro-ethoxy)-phenyl]-benzo[b]thiophen-2-yl}-but-2-enoic acid], the inhibitory constant (Ki) in assay [1] and in assay [2] was > 10 µM in each case.
Turning to `CCCCCCCOc1c(-c2cccc3sc(/C(C)=C/C(=O)O)cc23)cc(C(C)(C)C)cc1C(C)(C)C` [(E)-3-[4-(3,5-Di-tert-butyl-2-heptyloxy-phenyl)-benzo[b]thiophen-2-yl]-but-2-enoic acid], the Ki in assay [1] and in assay [2] was > 10 µM each time.
As for `C/C(=C\C(=O)O)c1cc2c(-c3cc(C(C)(C)C)cc(C(C)(C)C)c3C)cccc2s1` [(E)-3-[4-(3,5-Di-tert-butyl-2-methyl-phenyl)-benzo[b]thiophen-2-yl]-but-2-enoic acid], the inhibitory constant (Ki) in assay [1] and in assay [2] was > 10 µM each time.
For `C/C(=C\C(=O)O)c1cc2c(-c3cc(C(C)(C)C)cc(C(C)(C)C)c3OCCCF)cccc2s1` [(E)-3-{4-[3,5-Di-tert-butyl-2-(3-fluoro-propoxy)-phenyl]-benzo[b]thiophen-2-yl}-but-2-enoic acid], the inhibition constant Ki in assay [1] and in assay [2] was > 10 µM in each case.
With `CCOc1c(-c2cccc3sc(/C(C)=C/C(=O)O)cc23)cc(C(C)C)cc1C(C)C` [(E)-3-[4-(2-Ethoxy-3,5-diisopropyl-phenyl)-benzo[b]thiophen-2-yl]-but-2-enoic acid], the Ki turned out to be 5.94 µM in assay [1] and 10 µM in assay [2].
The like results for `CCCCOc1c(-c2cccc3cc(/C(C)=C(\F)C(=O)O)oc23)cc(C(C)C)cc1C(C)C` [(Z)-3-[7-(2-Butoxy-3,5-diisopropyl-phenyl)-benzofuran-2-yl]-2-fluoro-but-2-enoic acid] were, in that order, > 10 µM and > 10 µM.
The like results for `CCCOc1c(-c2cccc3cc(/C(C)=C/C(=O)O)oc23)cc(C(C)C)cc1C(C)C` [(E)-3-[7-(3,5-Diisopropyl-2-propoxy-phenyl)-benzofuran-2-yl]-but-2-enoic acid] were, in that order, 9.2 µM and > 10 µM.
Taken in the same sequence, the figures for `CCOc1c(-c2cccc3cc(/C(C)=C/C(=O)O)oc23)cc(C(C)C)cc1C(C)C` [(E)-3-[7-(2-Ethoxy-3,5-diisopropyl-phenyl)-benzofuran-2-yl]-but-2-enoic acid] were > 10 µM and > 10 µM.
On to `C/C(=C\C(=O)O)c1cc2cccc(-c3cc(C(C)C)cc(C(C)C)c3OCC(F)(F)F)c2o1` [(E)-3-{7-[3,5-Diisopropyl-2-(2,2,2-trifluoro-ethoxy)-phenyl]-benzofuran-2-yl}-but-2-enoic acid], for which the Ki was 2.7 µM in assay [1] and > 10 µM in assay [2].

Source of the values: BindingDB's records for doi:10.1016/j.bmcl.2003.12.089 (Ligand Pharmaceuticals, 2004).
